Biological target: Methionine aminopeptidase 2 (Homo sapiens) (UniProt P50579)
Test: Inhibition of MetAP2 activity in HUVEC assessed as inhibition of cell proliferation by MTT assay

Chain of Methionine aminopeptidase 2 (Homo sapiens) (P50579 whole entry, looked up): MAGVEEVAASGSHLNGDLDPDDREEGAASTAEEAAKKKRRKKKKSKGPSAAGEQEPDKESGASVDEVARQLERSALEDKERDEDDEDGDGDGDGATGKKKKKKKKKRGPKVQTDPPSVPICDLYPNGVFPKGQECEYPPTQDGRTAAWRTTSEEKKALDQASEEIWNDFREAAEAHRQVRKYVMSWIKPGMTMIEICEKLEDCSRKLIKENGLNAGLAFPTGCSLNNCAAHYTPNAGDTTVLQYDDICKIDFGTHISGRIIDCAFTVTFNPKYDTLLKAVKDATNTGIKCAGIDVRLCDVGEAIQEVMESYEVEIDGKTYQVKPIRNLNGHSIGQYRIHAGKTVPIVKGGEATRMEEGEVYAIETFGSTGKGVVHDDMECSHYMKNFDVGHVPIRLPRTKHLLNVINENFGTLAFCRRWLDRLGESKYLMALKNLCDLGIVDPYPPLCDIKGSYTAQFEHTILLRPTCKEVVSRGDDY

`CO[C@@H]1[C@H](OC(=O)N[C@@H](C(N)=O)C(C)(C)O)CC[C@]2(CO2)[C@H]1[C@@]1(C)O[C@@H]1C[C@@H]1OC1(C)C` was tested, and the EC50 was 12 nM.

`CO[C@@H]1[C@H](OC(=O)N[C@@H](C(N)=O)C(C)(C)O)CC[C@]2(CO2)[C@H]1[C@@]1(C)O[C@@H]1C[C@H]1OC1(C)C` was tested, and the EC50 was 8.8 nM.

Compound `CO[C@@H]1[C@H](OC(=O)N[C@@H](C(N)=O)C(C)C)CC[C@]2(CO2)[C@H]1[C@@]1(C)O[C@@H]1C/C=C(\C)CO` has an EC50 of 7.1 nM.

`CO[C@@H]1[C@H](OC(=O)N[C@@H](C(N)=O)C(C)C)CC[C@]2(CO2)[C@H]1[C@@]1(C)O[C@@H]1C[C@@H]1OC1(C)C` gave an EC50 of 6.5 nM.

`CO[C@@H]1[C@H](OC(=O)N[C@@H](C(N)=O)C(C)C)CC[C@]2(CO2)[C@H]1[C@@]1(C)O[C@@H]1C[C@H]1OC1(C)C` was tested, and the EC50 was 1.3 nM.

Compound `CO[C@@H]1[C@H](OC(=O)N[C@@H](C(N)=O)C(C)(C)O)CC[C@]2(CO2)[C@H]1[C@@]1(C)O[C@@H]1CC=C(C)C` has an EC50 of 0.3 nM.

With `CO[C@@H]1[C@H](OC(=O)N[C@@H](C(N)=O)C(C)C)CC[C@]2(CO2)[C@H]1[C@@]1(C)O[C@@H]1CC=C(C)C` the EC50 was 0.095 nM.

— BindingDB's records for doi:10.1124/dmd.112.048355 (Glaxosmithkline, 2013)
